Tests used:
system Xc^− [1] = target: T1, system Xc^− (Homo sapiens, UniProt Q9UPY5); experiment: Cystine-induced glutamate release assay; assay type: cell-based; set-up: endogenous in cells; host or cells: H4 cells; details: H4 cells, sodium-free HEPES buffer, 50 μM L-Cystine, 2 hours, Amplex Red glutamate readout; read-out: pIC50 Cystine-induced glutamate release assay (converted)
T1 sequence (Q9UPY5 1-501): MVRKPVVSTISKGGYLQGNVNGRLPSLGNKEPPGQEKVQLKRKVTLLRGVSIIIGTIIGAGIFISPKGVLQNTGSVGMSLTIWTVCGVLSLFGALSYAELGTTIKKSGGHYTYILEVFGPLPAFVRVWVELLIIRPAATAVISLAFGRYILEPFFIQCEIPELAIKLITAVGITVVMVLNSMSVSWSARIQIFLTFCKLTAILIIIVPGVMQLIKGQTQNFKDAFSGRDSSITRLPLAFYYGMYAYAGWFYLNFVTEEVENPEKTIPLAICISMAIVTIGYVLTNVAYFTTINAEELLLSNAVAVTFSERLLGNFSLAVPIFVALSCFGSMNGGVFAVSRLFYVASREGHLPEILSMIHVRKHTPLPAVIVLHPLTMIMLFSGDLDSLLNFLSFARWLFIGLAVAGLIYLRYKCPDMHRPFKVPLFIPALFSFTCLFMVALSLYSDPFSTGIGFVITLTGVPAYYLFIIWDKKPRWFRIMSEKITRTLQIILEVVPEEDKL
T1 sequence (P08195 1-529 partner): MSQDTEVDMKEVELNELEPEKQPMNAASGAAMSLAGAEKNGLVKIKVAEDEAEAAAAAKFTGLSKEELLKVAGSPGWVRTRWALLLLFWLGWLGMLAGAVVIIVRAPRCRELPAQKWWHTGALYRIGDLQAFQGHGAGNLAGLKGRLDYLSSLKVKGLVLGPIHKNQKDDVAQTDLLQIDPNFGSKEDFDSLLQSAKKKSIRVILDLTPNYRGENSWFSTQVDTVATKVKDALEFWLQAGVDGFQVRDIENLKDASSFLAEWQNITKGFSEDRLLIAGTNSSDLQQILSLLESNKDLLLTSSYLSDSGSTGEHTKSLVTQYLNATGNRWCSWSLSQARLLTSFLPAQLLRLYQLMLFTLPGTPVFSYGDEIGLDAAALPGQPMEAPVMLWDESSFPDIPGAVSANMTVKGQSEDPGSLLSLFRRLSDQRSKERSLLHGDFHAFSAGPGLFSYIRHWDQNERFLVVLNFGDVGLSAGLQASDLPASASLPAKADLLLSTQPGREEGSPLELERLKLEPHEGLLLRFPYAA
Procedure, shortened: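 H4 cells in sodium-free HEPES buffer (pH 7.4), 2 days after plating; glutamate release induced with 50 μM L-cystine plus compound (1% DMSO), 2 h at 37 °C. Supernatant glutamate measured by Amplex Red fluorescence; IC50/pIC50 derived between 1% DMSO and 50 μM erastin controls.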

system Xc^− [2] = target: T1, system Xc^−; experiment: [^14C]L-Cystine uptake assay; assay type: cell-based; set-up: endogenous in cells; host or cells: H4 cells; details: H4 cells, sodium-free HEPES buffer, 0.5 μM L-[14C]Cystine and 4.5 μM L-Cystine, 1 hour at 37° C.; read-out: pIC50 [^14C] L-Cystine uptake assay (converted)
Procedure, shortened: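 H4 cells at 5×10^4 cells/well in sodium-free HEPES buffer were preincubated 15 min with compounds (1% DMSO). Uptake of 0.5 μM [14C]L-cystine plus 4.5 μM unlabelled L-cystine ran 1 hour at 37° C on scintillating plates. IC50 was set between 1% DMSO and 50 μM Erastin controls and expressed as pIC50.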

| SMILES | IC50 (system Xc^− [1]) [nM] | IC50 (system Xc^− [2]) [nM] |
| --- | --- | --- |
| Cc1cc2c(c(F)n1)-c1cccnc1[C@@H](C)C(=O)N2CC(=O)Nc1ccc(C2(F)CC2)c(F)c1 [#248, 2-[(10R)-3-fluoro-5,10-dimethyl-9-oxo-4,8,12-triazatricyclo[9.4.0.0^2,7]pentadeca-1(11),2(7),3,5,12,14-hexaen-8-yl]-N-[3-fluoro-4-(1-fluorocyclopropyl)phenyl]acetamide] | < 15.8 | < 15.8 |
| Cc1cc2c(c(=O)n1C)-c1cccnc1C(C)C(=O)N2CC(=O)Nc1ccc(Cl)c(F)c1 (stereo not shown) [#254, N-(4-chloro-3-fluoro-phenyl)-2-(4,5,10-trimethyl-3,9-dioxo-4,8,12-triazatricyclo[9.4.0.0^2,7]pentadeca-1(15),2(7),5,11,13-pentaen-8-yl)acetamide] | < 15.8 | < 15.8 |
| Cc1cc2c(c(=O)n1C)-c1ccc(F)cc1C(C)C(=O)N2CC(=O)Nc1ccc(C(F)F)cc1 (stereo not shown) [#256, N-[4-(difluoromethyl)phenyl]-2-(9-fluoro-2,3,7-trimethyl-1,6-dioxo-7H-pyrido[4,3-d][3]benzazepin-5-yl)acetamide] | < 15.8 | < 15.8 |
| CC1C(=O)N(CC(=O)Nc2ccc(C(F)F)cc2)c2cc(N3CC[C@H]3CO)nc(F)c2-c2cccnc21 (stereo partly drawn) [#272, N-[4-(difluoromethyl)phenyl]-2-[3-fluoro-5-[(2S)-2-(hydroxymethyl)azetidin-1-yl]-10-methyl-9-oxo-4,8,12-triazatricyclo[9.4.0.0^2,7]pentadeca-1(15),2,4,6,11,13-hexaen-8-yl]acetamide] | 15.8 to 39.8 | 15.8 to 39.8 |
| O=C(CN1C(=O)Cc2ncccc2-c2c1cc(N1CC3(CC3)C1)nc2F)Nc1ccc(C(F)F)cc1 [#294, 2-[5-(5-azaspiro[2.3]hexan-5-yl)-3-fluoro-9-oxo-4,8,12-triazatricyclo[9.4.0.0^2,7]pentadeca-1(15),2,4,6,11,13-hexaen-8-yl]-N-[4-(difluoromethyl)phenyl]acetamide] | 15.8 to 39.8 | 39.8 to 100 |
| O=C(CN1C(=O)Cc2ncccc2-c2c1cc(N1CC(F)(F)C1)nc2F)Nc1ccc(C(F)F)cc1 [#295, 2-[5-(3,3-difluoroazetidin-1-yl)-3-fluoro-9-oxo-4,8,12-triazatricyclo[9.4.0.0^2,7]pentadeca-1(15),2,4,6,11,13-hexaen-8-yl]-N-[4-(difluoromethyl)phenyl]acetamide] | < 15.8 | < 15.8 |
| COc1ccc2c(c1)N(CC(=O)Nc1ccc(Cl)c(F)c1)C(=O)C(C)c1ncccc1-2 (stereo not shown) [#306, N-(4-chloro-3-fluoro-phenyl)-2-(9-methoxy-5-methyl-6-oxo-5H-pyrido[2,3-d][1]benzazepin-7-yl)acetamide] | 15.8 to 39.8 | 39.8 to 100 |
| CC1C(=O)N(CC(=O)Nc2ccc(Cl)c(F)c2)c2cc(C#N)ccc2-c2cccnc21 (stereo not shown) [#311, N-(4-chloro-3-fluoro-phenyl)-2-(9-cyano-5-methyl-6-oxo-5H-pyrido[2,3-d][1]benzazepin-7-yl)acetamide] | < 15.8 | 39.8 to 100 |
| O=C(CN1C(=O)Cc2ccccc2-c2c1cc(C(F)F)nc2Cl)Nc1ccc(C(F)F)cc1 [#339, 2-[1-chloro-3-(difluoromethyl)-6-oxo-7H-pyrido[4,3-d][3]benzazepin-5-yl]-N-[4-(difluoromethyl)phenyl]acetamide] | < 15.8 | < 15.8 |
| CC1C(=O)N(CC(=O)Nc2ccc(Cl)c(F)c2)c2cc(CN3CC(F)(F)C3)ccc2-c2cccnc21 (stereo not shown) [#344, N-(4-chloro-3-fluoro-phenyl)-2-[9-[(3,3-difluoroazetidin-1-yl)methyl]-5-methyl-6-oxo-5H-pyrido[2,3-d][1]benzazepin-7-yl]acetamide] | 39.8 to 100 | 100 to 501 |
| CC1C(=O)N(CC(=O)Nc2ccc(Cl)c(F)c2)c2cc(C3CN(CC(F)F)C3)cc(F)c2-c2cccnc21 (stereo not shown) [#345, N-(4-chloro-3-fluoro-phenyl)-2-[9-[1-(2,2-difluoroethyl)azetidin-3-yl]-11-fluoro-5-methyl-6-oxo-5H-pyrido[2,3-d][1]benzazepin-7-yl]acetamide] | 15.8 to 39.8 | 15.8 to 39.8 |

The remaining lines, values ahead:

| IC50 (system Xc^− [1]) [nM] | IC50 (system Xc^− [2]) [nM] | SMILES |
| --- | --- | --- |
| 39.8 to 100 | 100 to 501 | Cc1cc2c(c(F)n1)-c1cccnc1[C@@H](C)C(=O)N2CC(=O)Nc1ccc(Cl)c(F)c1F [#249, N-(4-chloro-2,3-difluoro-phenyl)-2-[(10R)-3-fluoro-5,10-dimethyl-9-oxo-4,8,12-triazatricyclo[9.4.0.0^2,7]pentadeca-1(15),2,4,6,11,13-hexaen-8-yl]acetamide] |
| 15.8 to 39.8 | < 15.8 | COCCN(C)c1cc2c(c(F)n1)-c1cccnc1C(C)C(=O)N2CC(=O)Nc1ccc(Cl)c(F)c1 (stereo not shown) [#264, N-(4-chloro-3-fluoro-phenyl)-2-[3-fluoro-5-[2-methoxyethyl(methyl)amino]-10-methyl-9-oxo-4,8,12-triazatricyclo[9.4.0.0^2,7]pentadeca-1(15),2(7),3,5,11,13-hexaen-8-yl]acetamide] |
| 15.8 to 39.8 | < 15.8 | CC1C(=O)N(CC(=O)Nc2ccc(C(F)F)cc2)c2cc(N3CCOCC3)nc(F)c2-c2cccnc21 (stereo not shown) [#271, N-[4-(difluoromethyl)phenyl]-2-(3-fluoro-10-methyl-5-morpholino-9-oxo-4.8,12-triazatricyclo[9.4.0.0^2,7]pentadeca-1(15),2,4,6,11,13-hexaen-8-yl)acetamide] |
| < 15.8 | < 15.8 | CC1C(=O)N(CC(=O)Nc2ccc(C(F)F)cc2)c2cc(N3CC[C@@H]3CO)nc(F)c2-c2cccnc21 (stereo partly drawn) [#273, N-[4-(difluoromethyl)phenyl]-2-[3-fluoro-5-[(2R)-2-(hydroxymethyl)azetidin-1-yl]-10-methyl-9-oxo-4,8,12-triazatricyclo[9.4.0.0^2,7]pentadeca-1(15),2,4,6,11,13-hexaen-8-yl]acetamide] |
| 39.8 to 100 | 15.8 to 39.8 | O=C(CN1C(=O)Cc2cc(F)ccc2-c2c1cc(N1CC(F)(F)C1)nc2F)Nc1ccc(C(F)F)cc1 [#296, 2-[3-(3,3-difluoroazetidin-1-yl)-1,9-difluoro-6-oxo-7H-pyrido[4,3-d][3]benzazepin-5-yl]-N-[4-(difluoromethyl)phenyl]acetamide] |
| 15.8 to 39.8 | 15.8 to 39.8 | CC1C(=O)N(CC(=O)Nc2ccc(Cl)c(F)c2)c2cc(C3CC3)c(=O)n(C)c2-c2ccccc21 (stereo not shown) [#321, N-(4-chloro-3-fluoro-phenyl)-2-(3-cyclopropyl-1,7-dimethyl-2,6-dioxo-7H-pyrido[3,2-d][3]benzazepin-5-yl)acetamide] |
| 15.8 to 39.8 | 39.8 to 100 | CC1C(=O)N(CC(=O)Nc2ccc(C(F)F)cc2)c2cc(C3CC3)c(=O)n(C)c2-c2ccccc21 (stereo not shown) [#322, 2-(3-cyclopropyl-1,7-dimethyl-2,6-dioxo-7H-pyrido[3,2-d][3]benzazepin-5-yl)-N-[4-(difluoromethyl)phenyl]acetamide] |
| 15.8 to 39.8 | 39.8 to 100 | CC1C(=O)N(CC(=O)Nc2ccc(Cl)c(F)c2)c2cc(C(F)F)ccc2-c2cccnc21 (stereo not shown) [#341, N-(4-chloro-3-fluoro-phenyl)-2-[9-(difluoromethyl)-5-methyl-6-oxo-5H-pyrido[2,3-d][1]benzazepin-7-yl]acetamide] |
| 39.8 to 100 | 100 to 501 | CC1C(=O)N(CC(=O)Nc2ccc(Cl)c(F)c2)c2cc(CN3CC(C)(O)C3)ccc2-c2cccnc21 (stereo not shown) [#343, N-(4-chloro-3-fluoro-phenyl)-2-[9-[(3-hydroxy-3-methyl-azetidin-1-yl)methyl]-5-methyl-6-oxo-5H-pyrido[2,3d][1]benzazepin-7-yl]acetamide] |

From US20260217708A1, “FUSED BENZAZEPINE DERIVATIVES FOR USE IN THE TREATMENT OF CANCER AND EPILEPSY” (UCB BIOPHARMA SRL, priority 2023, published 2026)
